Test results published in PubChem BioAssay (NCI).
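48-hour exposure; five concentrations; linearly interpolated endpoints. GI50: concentration for 50% inhibition of growth. At the TGI there is no net growth.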

Key:
Experiment in all cases: NCI anticancer screen, dose series, 48 h
DU-145 prostate = test system: DU-145 prostate
A549 NSCLC = test system: A549 NSCLC
COLO 205 colon = test system: COLO 205 colon
HCC-2998 colon = test system: HCC-2998 colon
NCI/ADR-RES ovarian = test system: NCI/ADR-RES ovarian
CAKI-1 renal = test system: CAKI-1 renal
EKVX NSCLC = test system: EKVX NSCLC
OVCAR-4 ovarian = test system: OVCAR-4 ovarian
TK-10 renal = test system: TK-10 renal
HOP-92 NSCLC = test system: HOP-92 NSCLC
OVCAR-5 ovarian = test system: OVCAR-5 ovarian
UACC-257 melanoma = test system: UACC-257 melanoma
LOX IMVI melanoma = test system: LOX IMVI melanoma
NCI-H460 lung = test system: NCI-H460 lung
MOLT-4 leukemia = test system: MOLT-4 leukemia
RPMI-8226 leukemia = test system: RPMI-8226 leukemia
SK-OV-3 ovarian = test system: SK-OV-3 ovarian
SK-MEL-2 melanoma = test system: SK-MEL-2 melanoma
HCT-15 colon = test system: HCT-15 colon
HL-60(TB) leukemia = test system: HL-60(TB) leukemia
MALME-3M melanoma = test system: MALME-3M melanoma
OVCAR-8 ovarian = test system: OVCAR-8 ovarian
HT29 colon = test system: HT29 colon
M14 melanoma = test system: M14 melanoma
OVCAR-3 ovarian = test system: OVCAR-3 ovarian
MDA-MB-231 breast = test system: MDA-MB-231 breast
SF-268 CNS = test system: SF-268 CNS
NCI-H23 lung = test system: NCI-H23 lung
KM12 colon = test system: KM12 colon
HCT-116 colon = test system: HCT-116 colon
786-0 renal = test system: 786-0 renal
MCF7 breast = test system: MCF7 breast
U251 CNS = test system: U251 CNS
SF-295 CNS = test system: SF-295 CNS
CCRF-CEM leukemia = test system: CCRF-CEM leukemia
RXF 393 renal = test system: RXF 393 renal
SK-MEL-5 melanoma = test system: SK-MEL-5 melanoma
SN12C renal = test system: SN12C renal
A498 renal = test system: A498 renal
IGROV1 ovarian = test system: IGROV1 ovarian
UACC-62 melanoma = test system: UACC-62 melanoma
ACHN renal = test system: ACHN renal
SNB-75 CNS = test system: SNB-75 CNS
SR leukemia = test system: SR leukemia
SNB-19 CNS = test system: SNB-19 CNS
PC-3 prostate = test system: PC-3 prostate
NCI-H226 lung = test system: NCI-H226 lung
SW-620 colon = test system: SW-620 colon
BT-549 breast = test system: BT-549 breast
MDA-MB-435 = test system: MDA-MB-435
UO-31 renal = test system: UO-31 renal
HS 578T breast = test system: HS 578T breast
NCI-H522 lung = test system: NCI-H522 lung
T-47D breast = test system: T-47D breast
SF-539 CNS = test system: SF-539 CNS
HOP-62 NSCLC = test system: HOP-62 NSCLC
SK-MEL-28 melanoma = test system: SK-MEL-28 melanoma

**Q.** What does the source list for COC(=O)/C=C1/SC(N2N=C(c3cccs3)CC2c2ccc(F)cc2)=NC1=O (centres undefined)?
**A.** GI50 (DU-145 prostate): 2.12 µM; TGI (DU-145 prostate): 4.75 µM; GI50 (A549 NSCLC): 4.1 µM; TGI (A549 NSCLC): 20.6 µM; GI50 (COLO 205 colon): 2.15 µM; TGI (COLO 205 colon): 4.27 µM; GI50 (HCC-2998 colon): 1.97 µM; TGI (HCC-2998 colon): 3.52 µM; GI50 (NCI/ADR-RES ovarian): 2.84 µM; TGI (NCI/ADR-RES ovarian): 8.61 µM; GI50 (CAKI-1 renal): 2.82 µM; TGI (CAKI-1 renal): 10.2 µM; GI50 (EKVX NSCLC): 3.49 µM; TGI (EKVX NSCLC): 23.6 µM; GI50 (OVCAR-4 ovarian): 2.64 µM; TGI (OVCAR-4 ovarian): 7.49 µM; GI50 (TK-10 renal): 2.6 µM; TGI (TK-10 renal): 8.16 µM; GI50 (HOP-92 NSCLC): 2.4 µM; TGI (HOP-92 NSCLC): 5.67 µM; GI50 (OVCAR-5 ovarian): 2.46 µM; TGI (OVCAR-5 ovarian): 5.21 µM; GI50 (UACC-257 melanoma): 2.39 µM; TGI (UACC-257 melanoma): 6.83 µM; GI50 (LOX IMVI melanoma): 1.61 µM; TGI (LOX IMVI melanoma): 3.06 µM; GI50 (NCI-H460 lung): 2.19 µM; TGI (NCI-H460 lung): 4.93 µM; GI50 (MOLT-4 leukemia): 2.65 µM; TGI (MOLT-4 leukemia): 7.25 µM; GI50 (RPMI-8226 leukemia): 2.08 µM; TGI (RPMI-8226 leukemia): 5.36 µM; GI50 (SK-OV-3 ovarian): 9.78 µM; TGI (SK-OV-3 ovarian): 53.9 µM; GI50 (SK-MEL-2 melanoma): 4.04 µM; TGI (SK-MEL-2 melanoma): 15.6 µM; GI50 (HCT-15 colon): 1.95 µM; TGI (HCT-15 colon): 4.44 µM; GI50 (HL-60(TB) leukemia): 2.88 µM; TGI (HL-60(TB) leukemia): 6.35 µM; GI50 (MALME-3M melanoma): 2.44 µM; TGI (MALME-3M melanoma): 8.51 µM; GI50 (OVCAR-8 ovarian): 2.59 µM; TGI (OVCAR-8 ovarian): 7.66 µM; GI50 (HT29 colon): 2.28 µM; TGI (HT29 colon): 4.54 µM; GI50 (M14 melanoma): 2.25 µM; TGI (M14 melanoma): 5.17 µM; GI50 (OVCAR-3 ovarian): 2.19 µM; TGI (OVCAR-3 ovarian): 5.27 µM; GI50 (MDA-MB-231 breast): 2.96 µM; TGI (MDA-MB-231 breast): 8.16 µM; GI50 (SF-268 CNS): 2.95 µM; TGI (SF-268 CNS): 12.6 µM; GI50 (NCI-H23 lung): 2.33 µM; TGI (NCI-H23 lung): 5.82 µM; GI50 (KM12 colon): 1.92 µM; TGI (KM12 colon): 3.78 µM; GI50 (HCT-116 colon): 2.05 µM; TGI (HCT-116 colon): 3.82 µM; GI50 (786-0 renal): 3.12 µM; TGI (786-0 renal): 8.61 µM; GI50 (MCF7 breast): 2.34 µM; TGI (MCF7 breast): 8.06 µM; GI50 (U251 CNS): 1.89 µM; TGI (U251 CNS): 3.69 µM; GI50 (SF-295 CNS): 3.24 µM; TGI (SF-295 CNS): 13.5 µM; GI50 (CCRF-CEM leukemia): 3 µM; TGI (CCRF-CEM leukemia): 8.73 µM; GI50 (RXF 393 renal): 1.73 µM; TGI (RXF 393 renal): 3.26 µM; GI50 (SK-MEL-5 melanoma): 1.78 µM; TGI (SK-MEL-5 melanoma): 3.36 µM; GI50 (SN12C renal): 3.29 µM; TGI (SN12C renal): 11 µM; GI50 (A498 renal): 1.81 µM; TGI (A498 renal): 6.26 µM; GI50 (IGROV1 ovarian): 2.4 µM; TGI (IGROV1 ovarian): 7.06 µM; GI50 (UACC-62 melanoma): 1.58 µM; TGI (UACC-62 melanoma): 3.74 µM; GI50 (ACHN renal): 1.89 µM; TGI (ACHN renal): 3.47 µM; GI50 (SNB-75 CNS): 1.64 µM; TGI (SNB-75 CNS): 7.28 µM; GI50 (SR leukemia): 2.23 µM; TGI (SR leukemia): 11.8 µM; GI50 (SNB-19 CNS): 2.51 µM; TGI (SNB-19 CNS): 6.32 µM; GI50 (PC-3 prostate): 1.92 µM; TGI (PC-3 prostate): 4.3 µM; GI50 (NCI-H226 lung): 2.24 µM; TGI (NCI-H226 lung): 6.32 µM; GI50 (SW-620 colon): 2.16 µM; TGI (SW-620 colon): 5 µM; GI50 (BT-549 breast): 3.21 µM; TGI (BT-549 breast): 8.09 µM; GI50 (MDA-MB-435): 2.13 µM; TGI (MDA-MB-435): 4.8 µM; GI50 (UO-31 renal): 1.49 µM; TGI (UO-31 renal): 2.9 µM; GI50 (HS 578T breast): 4.46 µM; TGI (HS 578T breast): > 100 µM; GI50 (NCI-H522 lung): 2.15 µM; TGI (NCI-H522 lung): 4.79 µM; GI50 (T-47D breast): 3.27 µM; TGI (T-47D breast): 8.31 µM; GI50 (SF-539 CNS): 1.86 µM; TGI (SF-539 CNS): 3.39 µM; GI50 (HOP-62 NSCLC): 1.87 µM; TGI (HOP-62 NSCLC): 4.29 µM; GI50 (SK-MEL-28 melanoma): 2.61 µM; TGI (SK-MEL-28 melanoma): 6 µM
